Results reported in patent US7781480B2, “Indole derivatives and their metal conjugates and uses thereof” (VLife Sciences Technologies Pvt. Ltd., priority 2007, dated 2010).

Experiments:
[1] = tested on: BxPC3 (wild type K-Ras pancreatic cancer); experiment: MTT cell growth inhibition assay, BxPC3; assay type: cell-based; settings: BxPC3, 72 h; read-out: MTT Assay EC50 after 72 h
Experimental: (§1) COLO 357 cells (K-ras mutated pancreatic cancer) were seeded at a density of 3×10^3 cells per well in 96-well microtiter culture plates. After overnight incubation, medium was removed and replaced with fresh medium containing different concentrations of compounds (0-100 μmol/L) diluted from a 10 mmol/L stock. On completion of 72 hours of incubation, 20 μL of 3-(4,5-dimethylthiazol-2-yl)-2,5-diphenyltetrazolium bromide (MTT) solution (5 mg/mL in PBS) were added to each well and incubated further for 2 hours. Upon termination, the supernatant was aspirated and the MTT formazan formed by metabolically viable cells was dissolved in 100 μL of isopropanol. The plates were mixed for 30 minutes on a gyratory shaker, and absorbance was measured at 595 nm using a plate reader (TECAN, Durham, N.C.). A similar protocol was used for BxPC3 (wild type K-Ras pancreatic cancer), PC3 (prostate cancer) and HCT (colon cancer) cell lines.
(§2) Cells were plated as described above and allowed to attach overnight. The cells were replaced with fresh medium containing 25 μmol/L of Compound 1 and Compound 2 for 72 hours. The effect of Compound 1 and Compound 2 pretreatment on cell viability was examined by the MTT assay method as described above.

Akt = Akt assay (ELISA based activity kit); assay type: biochemical
Experimental: Akt activity kit is an ELISA based activity kit that utilizes biotinylated peptide substrate (GRPRTSSFAEG) that is phosphorylated on second serine by Akt1, Akt2, Akt3, SGK and MSK1. Biotinylated Akt substrate and sample containing Akt are incubated in presence of ATP in the wells of a streptavidin coated 96-well plate, which allows for phosphorylation and substrate capture in a single step. The phosphorylated substrate is detected using phosphoserine detection antibody followed by HRP-antibody conjugate and color development with TMB substrate. Sensitivity is increased by addition of ELISA stop solution and relative activity is determined by reading dual absorbance at 450/540 nm or 450/595 nm. Inhibition profiles can be generated based on Akt activity in the presence and absence of test inhibitor(s).

HCT116 = experiment: Quantification of apoptosis by ELISA, HCT116; assay type: cell-based; settings: HCT116, 72 hours; control 0.35
Experimental: (§3) The Cell Apoptosis ELISA Detection Kit (Roche, Palo Alto, Calif.) was used to detect apoptosis in COLO357 cells, with different treatments according to the manufacturer's protocol. Briefly, COLO357 cells were treated with […] of Compound 1 and Compound 2 for 72 hours. After treatment, the cytoplasmic histone DNA fragments from COLO 357 cells with different treatments were extracted and bound to immobilized anti-histone antibody.
(§4) Subsequently, the peroxidase-conjugated anti-DNA antibody was used for the detection of immobilized histone DNA fragments. After addition of substrate for peroxidase, the spectrophotometric absorbance of the samples was determined using ULTRA Multifunctional Microplate Reader (TECAN) at 405 nm. A similar protocol was used for BxPC3, PC3 and HCT116 cell lines.

HCT116 (colon cancer) = experiment: MTT cell growth inhibition assay, HCT116; assay type: cell-based; settings: HCT116, 72 h; read-out: MTT Assay EC50 after 72 h
Experimental: as §1, §2

BxPC3 = experiment: Quantification of apoptosis by ELISA, BxPC3; assay type: cell-based; settings: BxPC3, 25 mmol/L, 72 hours; control 0.50
Experimental: as §3, §4

PC3 (prostate cancer) = experiment: MTT cell growth inhibition assay, PC3; assay type: cell-based; settings: PC3, 72 h; read-out: MTT Assay EC50 after 72 h
Experimental: as §1, §2

COLO357 cells = experiment: Quantification of apoptosis by ELISA, COLO357; assay type: cell-based; settings: COLO357, 72 hours; control 0.75
Experimental: as §3, §4

[2] = tested on: COLO 357 cells (K-ras mutated pancreatic cancer); experiment: MTT cell growth inhibition assay, COLO357; assay type: cell-based; settings: COLO357, 72 h; read-out: MTT Assay EC50 after 72 h
Experimental: as §1, §2

PC3 = experiment: Quantification of apoptosis by ELISA, PC3; assay type: cell-based; settings: PC3, 72 hours; control 0.50
Experimental: as §3, §4

| Substance | EC50 [1] [µM] | Akt inhibitory activity (Akt) | O.D. Of Histone/DNA at 405 nm (HCT116) | EC50 (HCT116 (colon cancer)) [µM] | O.D. Of Histone/DNA at 405 nm (BxPC3) | EC50 (PC3 (prostate cancer)) [µM] | O.D. Of Histone/DNA at 405 nm (COLO357 cells) | EC50 [2] [µM] | O.D. Of Histone/DNA at 405 nm (PC3) |
| --- | --- | --- | --- | --- | --- | --- | --- | --- | --- |
| Cu(II) complex of (2Z)-2-(N-hydroxyimino)-N′-[(1Z)-1H-indol-3-ylmethylidene]-1,3-dioxobutanehydrazide [Compound 2] | 18.9 | micromolar range | 1.75 | 14.1 | 1.80 | 16.6 | 2.00 | 14.3 | 1.90 |
| Cu(II) complex of 2-amino-3-[(Z)—N′-(1H-indol-3-ylmethylidene)hydrazinecarbonyl]-propanoic acid [Compound 1] | 28.9 | micromolar range | 1.60 | 11.7 | 2.20 | 28.8 | 1.90 | 14.6 | 0.60 |
